What was measured:
[1] = tested on: rat liver mitochondria (RLM); assay: Mitochondrial uptake by energised RLM, TPP-selective electrode; assay type: in vitro ADME
Method: In an embodiment, and as an example, the mitochondrial uptake of some AntiOxBENs was assessed in isolated rat liver mitochondria (RLM) in response to the membrane potential. AntiOxBENs can accumulate inside mitochondria driven by the Δψ (FIG. 3A). Different AntiOxBENs accumulation outlines within the mitochondrial matrix have been measured. […] The following ranking order was attained: AntiOxBEN2<AntiOxBEN1<AntiOxBEN3.
In an embodiment, the AntiOxBENs mitochondria uptake by energized RLM was evaluated as follows: RLM (0.5 mg protein/mL) were incubated with AntiOxBENs at 37° C. under constant stirring in 1 mL of KCl medium (120 mM KCl, 10 mM HEPES, pH 7.2 and 1 mM EGTA). Five sequential 1 μM additions of each AntiOxBENs were performed to calibrate the electrode response in the presence of rotenone (1.5 μM). Then, succinate (10 mM) was added to generate […]. Valinomicin (0.2 μg/mL) was added at the end of the assay to dissipate Δψ. The measurements were performed with an ion-selective electrode, which measure the distribution of tetraphenylphosphonium cation (TPP+) and Ag/AgCl2 electrode as reference. The mitochondrial accumulation ratio was calculated by the disappearance of AntiOxBENs from extra- to intramitochondrial medium assuming an intramitochondrial volume of 0.5 μL/mg protein and a binding correction for the mitochondrial uptake of TPP compounds.

[2] = GO radical scavenging activity; assay type: biochemical; conditions: ethanol, 428 nm, 30 min
Method: The selected total antioxidant capacity (TAC) assays (DPPH, ABTS and GO) involved the spectrophotometric measurement of the radical absorbance decrease as a result of an in situ radical deactivation by an antioxidant.
The radical scavenging activity of AntiOxClNs was evaluated by means of total antioxidant capacity assays based on DPPH., ABTS.^+ and GO. radicals. All these methods involved the spectrophotometric measurement of the absorbance decrease resulting from radical (DPPH., ABTS.^+ or GO.) deactivation with an antioxidant. The results were expressed in IC50, which is defined as the minimum antioxidant concentration necessary to reduce the amount of radical by 50%. Antioxidant assays were performed in a multiplate reader (Powerwave XS Microplate Reader) from Bio Tech instruments.
In an embodiment, the GO. scavenging activity was evaluated as follows: solutions of test compounds with concentrations from 10 μM to 100 μM were prepared in ethanol. An ethanolic solution of 5 mM GO. was prepared and diluted to reach the absorbance of 1.00±0.02 at 428 nm. The addition (20 μL) in triplicate of compound solution to GO. solution (180 μL) was followed by absorbance measurement at 428 nm over 30 minutes, in the dark, at room temperature. […] Dose-response curves were established for the determination of IC50 values.

[3] = tested on: rat liver mitochondria (RLM); assay: Mitochondrial transmembrane electric potential (safranine fluorescence); assay type: biochemical
Method: In an embodiment, and as an example, the toxicity effects of some AntiOxBENs and MitoQ on the mitochondrial bioenergetics, namely on RLM Δψ and respiration parameters, were measured. The Δψ represents the main component of the electrochemical gradient generated by mitochondrial respiration and accounts for more than 90% of the total available energy. For mitochondrial respiration assays, glutamate/malate (for complex I) and succinate (for complex II) were used as substrates. In addition, the mitochondrial oxidative phosphorylation coupling index, known as respiratory control ratio (RCR, state 3/state 4 respiration) and ADP/O index (the coupling between ATP synthesis and oxygen consumption) were also calculated. AntiOxBENs and MitoQ were tested at antioxidant-relevant concentrations, with 10 μM being the highest concentration.
In an embodiment, the evaluation of AntiOxBENs effect on mitochondrial transmembrane electric potential (Δψ) was performed as follows: the mitochondrial transmembrane electric potential (Δψ) was estimated through the evaluation of fluorescence changes of safranine (5 μM) and was recorded on a spectrofluorometer operating at excitation and emission wavelengths of 495 and 586 nm, with a slit width of 5 nm. Increasing concentrations of AntiOxBENs (2.5-10 μM) were added to the reaction medium (200 mM sucrose, 1 mM KH2PO^4, 10 mM Tris (pH 7.4) and 10 μM EGTA) containing respiratory substrates glutamate/malate (5 mM and 2.5 mM respectively) or succinate (5 mM) and RLM (0.5 mg in 2 mL final volume) and allowed to incubate for a 5 min period prior to initiate the assay, at 25° C. In this assay, safranine (5 μM) and ADP (25 nmol) were used to initiate the assay and to induce depolarization, respectively. Then, 1 μM FCCP was added at the end of all experiments to depolarize mitochondria. Δψ was calculated using a calibration curve obtained when RLM were incubated in a K^+-free reaction medium containing 200 mM sucrose, 1 mM NaH2PO4, 10 mM Tris (pH 7.4) and 10 μM EGTA, supplemented with 0.4 μg valinomicin. […] “Repolarization” corresponded to the recovery of membrane potential after the complete phosphorylation of ADP added. Lag phase reflected the time required to phosphorylate the added ADP. Isolated RLM developed a Δψ≈226 mV and Δψ≈202 mV (negative inside) when glutamate/malate or succinate were used, respectively. Data are means±SEM of five independent experiments.

SMILES | IC50 [2] | ADP-induced depolarization (ΔΨ in - mV) ([3]; Glutamate/Malate, 2.5 μM) | Lag Phase ([3]; Glutamate/Malate, 2.5 μM) | Maximum potential (ΔΨ in - mV) ([3]; Glutamate/Malate, 2.5 μM) | Repolarization Potential (ΔΨ in - mV) ([3]; Glutamate/Malate, 2.5 μM) | ADP-induced depolarization (ΔΨ in - mV) ([3]; Glutamate/Malate, 5 μM) | Lag Phase ([3]; Glutamate/Malate, 5 μM) | Maximum potential (ΔΨ in - mV) ([3]; Glutamate/Malate, 5 μM) | Repolarization Potential (ΔΨ in - mV) ([3]; Glutamate/Malate, 5 μM) | ADP-induced depolarization (ΔΨ in - mV) ([3]; Glutamate/Malate, 10 μM) | Lag Phase ([3]; Glutamate/Malate, 10 μM) | Maximum potential (ΔΨ in - mV) ([3]; Glutamate/Malate, 10 μM) | Repolarization Potential (ΔΨ in - mV) ([3]; Glutamate/Malate, 10 μM) | ADP-induced depolarization (ΔΨ in - mV) ([3]; Succinate, 2.5 μM) | Lag Phase ([3]; Succinate, 2.5 μM) | Maximum potential (ΔΨ in - mV) ([3]; Succinate, 2.5 μM) | Repolarization Potential (ΔΨ in - mV) ([3]; Succinate, 2.5 μM) | ADP-induced depolarization (ΔΨ in - mV) ([3]; Succinate, 5 μM) | Lag Phase ([3]; Succinate, 5 μM) | Maximum potential (ΔΨ in - mV) ([3]; Succinate, 5 μM) | also measured
O=C(CCCCC[P+](c1ccccc1)(c1ccccc1)c1ccccc1)NCCCCCCNC(=O)c1cc(O)c(O)c(O)c1.[Br-] [AntiOxBEN3, [5-(6-(3,4,5-trihydroxybenzamido)hexylamino)carbonylpentyl]triphenylphosphonium bromide] | 3.4 µM | 202.9 ± 18.7 - mV | 137.5 ± 20.3 s | 221.1 ± 20.2 - mV | 217.0 ± 17.7 - mV | 204.5 ± 21.6 - mV | 154.5 ± 21.5 s | 221.4 ± 22.6 - mV | 216.4 ± 21.3 - mV | 216.4 ± 25.3 - mV | 143.0 ± 21.7 s | 227.5 ± 26.3 - mV | 222.9 ± 25.4 - mV | 188.0 ± 19.7 - mV | 132.6 ± 22.7 s | 203.6 ± 16.6 - mV | 198.4 ± 18.4 - mV | 191.1 ± 20.0 - mV | 119.8 ± 32.2 s | 205.3 ± 19.4 - mV | accumulation ratio by rat liver mitochondria ([1]; rat, 5 μM, pH 7.2): AntiOxBEN2<AntiOxBEN1<AntiOxBEN3; Repolarization Potential (ΔΨ in - mV) ([3]; Succinate, 5 μM): 199.1 ± 19.2 - mV; ADP-induced depolarization (ΔΨ in - mV) ([3]; Succinate, 10 μM): 198.2 ± 19.3 - mV; Lag Phase ([3]; Succinate, 10 μM): 114.4 ± 24.3 s; Maximum potential (ΔΨ in - mV) ([3]; Succinate, 10 μM): 207.9 ± 19.3 - mV; Repolarization Potential (ΔΨ in - mV) ([3]; Succinate, 10 μM): 207.5 ± 19.4 - mV
O=C(NCCCCCC[P+](c1ccccc1)(c1ccccc1)c1ccccc1)c1ccc(O)c(O)c1.[Br-] [AntiOxBEN1, 6-(3,4-dihydroxybenzamido)hexyltriphenylphosphonium bromide] | 4.3 µM | 199.5 ± 16.6 - mV | 131.8 ± 18.9 s | 216.8 ± 18.9 - mV | 212.3 ± 18.2 - mV | 209.4 ± 20.3 - mV | 137.8 ± 22.5 s | 224.8 ± 24.7 - mV | 219.0 ± 22.9 - mV | 192.6 ± 15.0 - mV | 148.7 ± 48.4 s | 200.4 ± 16.0 - mV | 199.4 ± 17.1 - mV | 180.3 ± 17.1 - mV | 120.0 ± 32.1 s | 191.4 ± 18.2 - mV | 190.3 ± 17.4 - mV | 175.4 ± 12.9 - mV | 93.6 ± 29.2 s | 184.9 ± 13.1 - mV | accumulation ratio by rat liver mitochondria ([1]; energised RLM, succinate): AntiOxBEN2<AntiOxBEN1<AntiOxBEN3; Repolarization Potential (ΔΨ in - mV) ([3]; Succinate, 5 μM): 181.0 ± 13.5 - mV; ADP-induced depolarization (ΔΨ in - mV) ([3]; Succinate, 10 μM): 182.4 ± 14.4 - mV; Lag Phase ([3]; Succinate, 10 μM): 105.0 ± 28.1 s; Maximum potential (ΔΨ in - mV) ([3]; Succinate, 10 μM): 188.9 ± 14.8 - mV; Repolarization Potential (ΔΨ in - mV) ([3]; Succinate, 10 μM): 188.8 ± 15.8 - mV
O=C(NCCCCCC[P+](c1ccccc1)(c1ccccc1)c1ccccc1)c1cc(O)c(O)c(O)c1.[Br-] [AntiOxBEN2, 6-(3,4,5-trihydroxybenzamido)hexyltriphenylphosphonium bromide] | 3 µM | 200.5 ± 17.5 - mV | 124.7 ± 19.2 s | 217.8 ± 18.8 - mV | 216.8 ± 17.9 - mV | 194.9 ± 15.6 - mV | 147.5 ± 31.2 s | 212.2 ± 19.8 - mV | 209.0 ± 17.8 - mV | 200.1 ± 18.2 - mV | 146.2 ± 30.9 s | 209.5 ± 19.1 - mV | 208.4 ± 18.6 - mV | 184.5 ± 19.2 - mV | 115.4 ± 21.0 s | 197.6 ± 18.2 - mV | 193.6 ± 17.8 - mV | 191.2 ± 17.8 - mV | 118.0 ± 26.4 s | 204.6 ± 18.1 - mV | accumulation ratio by rat liver mitochondria ([1]; energised RLM, succinate): AntiOxBEN2<AntiOxBEN1<AntiOxBEN3; Repolarization Potential (ΔΨ in - mV) ([3]; Succinate, 5 μM): 200.4 ± 17.0 - mV; ADP-induced depolarization (ΔΨ in - mV) ([3]; Succinate, 10 μM): 190.9 ± 16.8 - mV; Lag Phase ([3]; Succinate, 10 μM): 124.8 ± 37.2 s; Maximum potential (ΔΨ in - mV) ([3]; Succinate, 10 μM): 199.8 ± 16.0 - mV; Repolarization Potential (ΔΨ in - mV) ([3]; Succinate, 10 μM): 198.6 ± 17.2 - mV

Reference: patent publication US11078222B2, “Hydroxybenzoic acid derivatives, methods and uses thereof” (UNiVERSIDADE DO PORTO, priority 2016, dated 2021)
